Laboratory results published in ChEMBL document CHEMBL1144618, “Convenient synthesis and in vitro pharmacological activity of 2-thioanalogs of salvinorins A and B” (Bioorg Med Chem Lett, 2007).
pEC50, pKi: −log10 of the molar value.

Legend:
[1] = target: Kappa-type opioid receptor (Rattus norvegicus, UniProt P34975); experiment: Displacement of [3H]U-69593 from rat cloned KOR
[2] = target: Kappa-type opioid receptor (Homo sapiens, UniProt P41145); experiment: Activity at human kappa opioid receptor expressed in HEK293 cells as intracellular calcium mobilization; assay type: functional, cell-based
Sequence of Kappa-type opioid receptor (Homo sapiens, UniProt P41145) (P41145 whole entry): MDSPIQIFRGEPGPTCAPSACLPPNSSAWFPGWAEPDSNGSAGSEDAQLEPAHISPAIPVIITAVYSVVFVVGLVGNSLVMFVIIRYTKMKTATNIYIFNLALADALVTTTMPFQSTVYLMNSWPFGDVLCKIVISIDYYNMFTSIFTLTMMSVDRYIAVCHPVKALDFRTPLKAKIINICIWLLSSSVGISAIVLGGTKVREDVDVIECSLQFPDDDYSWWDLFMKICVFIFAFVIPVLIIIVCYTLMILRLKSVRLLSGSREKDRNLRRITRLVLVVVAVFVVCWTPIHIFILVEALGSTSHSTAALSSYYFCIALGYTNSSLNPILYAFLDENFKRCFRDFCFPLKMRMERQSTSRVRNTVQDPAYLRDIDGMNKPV

Sequence of Kappa-type opioid receptor (Rattus norvegicus, UniProt P34975) (P34975 whole entry): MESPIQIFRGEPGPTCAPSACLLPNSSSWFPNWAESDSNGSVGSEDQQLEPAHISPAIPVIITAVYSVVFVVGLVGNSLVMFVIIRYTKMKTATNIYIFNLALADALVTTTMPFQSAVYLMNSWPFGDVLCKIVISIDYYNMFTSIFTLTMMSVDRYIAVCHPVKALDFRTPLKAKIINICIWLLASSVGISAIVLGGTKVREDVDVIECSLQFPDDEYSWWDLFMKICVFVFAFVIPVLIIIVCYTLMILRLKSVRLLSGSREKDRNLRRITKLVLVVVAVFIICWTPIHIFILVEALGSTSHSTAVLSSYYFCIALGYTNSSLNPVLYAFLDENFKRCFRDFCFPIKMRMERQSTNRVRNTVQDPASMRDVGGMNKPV

| Compound | pKi [1] | pEC50 [2] | Emax [2] [%] |
| --- | --- | --- | --- |
| COC(=O)[C@@H]1C[C@@H](SC(C)=O)C(=O)[C@H]2[C@@]1(C)CC[C@H]1C(=O)O[C@H](c3ccoc3)C[C@]21C [2-EPI-2-THIOSALVINORIN A] | 6.82 | 6.91 | 106 |
| COC(=O)[C@@H]1C[C@@H](S)C(=O)[C@H]2[C@@]1(C)CC[C@H]1C(=O)O[C@H](c3ccoc3)C[C@]21C [2-EPI-2-THIOSALVINORIN B] | 6.26 | < 5.70 | 71 |
| COC(=O)[C@@H]1C[C@H](S)C(=O)[C@H]2[C@@]1(C)CC[C@H]1C(=O)O[C@H](c3ccoc3)C[C@]21C [2-THIOSALVINORIN B] | 7.26 | 6.54 | 89 |
